Results taken from BindingDB's records for patent US12338251 (Teligene US, 2025).

Biological target: Cytochrome P450 3A4 (Homo sapiens, UniProt P08684)
Test: CYP Inhibition Assay
From the text: The final concentrations of DMSO and acetonitrile were equal to or less than 0.1%.

Cytochrome P450 3A4, sequence (P08684 whole entry): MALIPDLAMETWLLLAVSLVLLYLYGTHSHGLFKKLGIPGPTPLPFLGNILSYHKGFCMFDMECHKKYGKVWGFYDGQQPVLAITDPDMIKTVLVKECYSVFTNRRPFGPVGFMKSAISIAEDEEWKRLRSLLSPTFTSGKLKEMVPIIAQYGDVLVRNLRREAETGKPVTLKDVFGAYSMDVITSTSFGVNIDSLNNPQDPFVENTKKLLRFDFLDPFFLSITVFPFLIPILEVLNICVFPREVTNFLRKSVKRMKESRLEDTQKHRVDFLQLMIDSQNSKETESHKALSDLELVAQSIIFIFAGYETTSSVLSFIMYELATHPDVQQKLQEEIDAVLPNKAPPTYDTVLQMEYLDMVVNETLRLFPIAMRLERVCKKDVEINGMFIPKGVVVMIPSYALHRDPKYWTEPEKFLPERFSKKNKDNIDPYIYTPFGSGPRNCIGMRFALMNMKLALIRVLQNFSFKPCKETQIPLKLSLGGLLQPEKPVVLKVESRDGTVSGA

IC50: 279 µM
Structure (SMILES): CC(=O)CCC(=O)Nc1ncc2cc1O[C@H](C)c1cc(F)ccc1C(=O)N(C)Cc1nn(C)c(C#N)c1-2 [US12338251, Compound 3]
